Test results taken from US20190175560A1, “MEBENDAZOLE CANCER THERAPIES AND METHODS OF USE” (Shepherd Therapeutics, Inc., priority 2017, published 2019).

Tests used:
Format in all cases: cell-based
[1] = test system: MUG-Chor1 chordoma cell line; test: MBZ cell viability dose response (CellTiter Glo); details: 72 hours, up to the highest concentration, 50 μM
Description: (§1) The effect of mebendazole administration on cell lines derived from exemplary cancers was tested. One approach to determining the effectiveness of mebendazole in the treatment of cancer comprises in vitro testing. In this approach, cancer cell lines representative of the cancers of the disclosure are cultured in vitro according to standard techniques (see, for example, Human Cell Culture Protocols, Third Edition, […] R. D. Hughes, Editors, Humana Press, 2012), and increasing concentrations of mebendazole are administered to determine the IC50 value. As used herein, the term “IC50 value” refers to the concentration of a compound (for example mebendazole) wherein the response to that compound (such as inhibited cellular viability) is reduced by half. The IC50 is thus a measure of the effectiveness of a compound in inhibiting a biological process. […] Based on this biology, several rare cancer tumor cell lines including neuroblastoma, rhabdomyosarcoma and Ewing sarcoma were analyzed for sensitivity to MBZ treatment in vitro. […] In all cases, including those described below, the viable cells were determined using the CellTiter Glo® kit and an IC50 curve was generated using the PRISM software. […] A dose response curve was generated using the PRISM software, with the intent of determining an IC50 for the cell lines following treatment of MBZ.

[2] = test system: U-CH2 chordoma cell line; test: MBZ cell viability dose response (CellTiter Glo); details: 72 hours, up to the highest concentration, 50 μM
Description: as §1

[3] = test system: SK-UT-1B leiomyosarcoma cell line; test: MBZ cell viability IC50 (CellTiter Glo); details: Homo sapiens, Skut1B, 72 hours
Description: (§2) The effect of mebendazole administration on cell lines derived from exemplary cancers was tested. One approach to determining the effectiveness of mebendazole in the treatment of cancer comprises in vitro testing. In this approach, cancer cell lines representative of the cancers of the disclosure are cultured in vitro according to standard techniques (see, for example, Human Cell Culture Protocols, Third Edition, […] R. D. Hughes, Editors, Humana Press, 2012), and increasing concentrations of mebendazole are administered to determine the IC50 value. As used herein, the term “IC50 value” refers to the concentration of a compound (for example mebendazole) wherein the response to that compound (such as inhibited cellular viability) is reduced by half. The IC50 is thus a measure of the effectiveness of a compound in inhibiting a biological process. […] Based on this biology, several rare cancer tumor cell lines including neuroblastoma, rhabdomyosarcoma and Ewing sarcoma were analyzed for sensitivity to MBZ treatment in vitro. […] In all cases, including those described below, the viable cells were determined using the CellTiter Glo® kit and an IC50 curve was generated using the PRISM software.

[4] = test system: TC-32 Ewing's sarcoma cell line; test: MBZ cell viability IC50 (CellTiter Glo); details: Homo sapiens, 72 hours
Description: as §2

[5] = test system: NCI-H295R adrenal cortical carcinoma cell line; test: MBZ cell viability IC50 (CellTiter Glo); details: Homo sapiens, 72 hours
Description: as §2

[6] = test system: CHLA-9 Ewing's sarcoma cell line; test: MBZ cell viability IC50 (CellTiter Glo); details: 72 hours
Description: as §2

[7] = test system: Rh-41 rhabdomyosarcoma cell line; test: MBZ cell viability IC50 (CellTiter Glo); details: Homo sapiens, Rh41, 72 hours
Description: as §2

[8] = test system: TC-71 Ewing's sarcoma cell line; test: MBZ cell viability IC50 (CellTiter Glo); details: 72 hours
Description: as §2

[9] = test system: SNU-16 gastric carcinoma cell line; test: MBZ cell viability IC50 (CellTiter Glo); details: Homo sapiens, 72 hours
Description: as §2

[10] = test system: Rh-30 rhabdomyosarcoma cell line; test: MBZ cell viability IC50 (CellTiter Glo); details: Rh30, 72 hours
Description: as §2

[11] = test system: SW-13 adrenal cortical carcinoma cell line; test: MBZ cell viability IC50 (CellTiter Glo); details: Homo sapiens, SW13, 72 hours
Description: as §2

[12] = test system: multiple rare cancer tumor cell lines; test: MBZ alone, cell viability IC50 in rare cancer tumor cell lines (Example 3); details: read-out: IC50s (range over cell lines)
Description: The FDA-approved anti-helminthic drug mebendazole (MBZ) has been reported to affect several biological pathways involved in tumor growth and metastasis. Based on this activity, multiple rare cancer tumor cell lines including, but not limited to, neuroblastoma, carcinoid tumors, esophageal adenocarcinoma, gastrointestinal stromal tumors, leiomyosarcoma, pheochromocytoma, and mesothelioma were analyzed for their susceptibility to MBZ treatment alone or in combination with standard chemotherapeutic agents in vitro.

[13] = test system: SK-UT-1 cells; test: MBZ vs HA-PLGA-MBZ cell viability IC50 (Cell Titer Glo); details: Homo sapiens, 72 hour incubation
Text: (§3) An IC50 for each treatment was established using the PRISM software.

[14] = test system: NCI-H295R cells; test: as above; details: Homo sapiens, 72 hour incubation
Text: as §3

[15] = test system: CHP-212 cells; test: as above; details: Homo sapiens, 72 hour incubation
Text: as §3

[16] = test system: COV-362 cells; test: as above; details: COV362, 72 hour incubation
Text: as §3

[17] = test system: PC-12 cells; test: as above; details: Rattus norvegicus, 72 hour incubation
Text: as §3

[18] = test system: SW-1271 cells; test: as above; details: SW1271, 72 hour incubation
Text: as §3

[19] = test system: SNU-16 cells; test: as above; details: Homo sapiens, 72 hour incubation
Text: as §3

[20] = test system: SKOV-3 cells; test: as above; details: Homo sapiens, SK-OV-3, 72 hour incubation
Text: as §3

[21] = test system: HCT-116 cells; test: as above; details: Homo sapiens, 72 hour incubation
Text: as §3

[22] = test system: DMS-114 cells; test: as above; details: Homo sapiens, 72 hour incubation
Text: as §3

[23] = test system: COLO-205 cells; test: as above; details: Homo sapiens, 72 hour incubation
Text: as §3

Compound: COC(=O)Nc1nc2ccc(C(=O)c3ccccc3)cc2[nH]1 [MBZ, methyl N-(6-benzoyl-1H-benzimidazol-2-yl)carbamate]
- sensitivity to MBZ treatment (dose response) [1]: largely resistant
- sensitivity to MBZ treatment (dose response) [2]: largely resistant
- IC50 [3]: 100 nM
- IC50 [4]: 410 nM
- IC50 [5]: 100 nM
- IC50 [6]: 1020 nM
- IC50 [7]: 490 nM
- IC50 [8]: 470 nM
- IC50 [9]: 420 nM
- IC50 [10]: 100 nM
- IC50 [11]: 260 nM
- IC50 [12]: 90 to 2200 nM
- IC50 [13]: 260 nM
- IC50 [14]: 330 nM
- IC50 [15]: 130 nM
- IC50 [16]: 330 nM
- IC50 [17]: 1030 nM
- IC50 [18]: > 50000 nM
- IC50 [19]: 110 nM
- IC50 [20]: 680 nM
- IC50 [21]: 320 nM
- IC50 [22]: 800 nM
- IC50 [23]: 270 nM
